Measurements as given in patent publication US9358023B2, “Systems and methods for opening of a tissue barrier” (priority 2009, dated 2016).
Entries after “also recorded” stand apart in the source; their conditions may differ. Blank lines part the entries; values can stand above or below the molecule they belong to.

How the values were obtained:
blood-brain barrier [1] = experiment: FUS and microbubble BBB opening: fluorescent dextran delivery to the sonicated hippocampus, quantified as NOD;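 also: male wild-type C57BL/6 mice, left hippocampus sonicated with untargeted right hippocampus as control, read by fluorescence microscopy of frozen horizontal brain sections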
blood-brain barrier [2] = settings: mouse
[3] = PL 3.5 cycles, PRF 6.25 kHz, BRF 0.1 Hz, BL 1000 pulses, pressure 0.51
[4] = PL 3.5 cycles, PRF 6.25 kHz, BRF 1 Hz, BL 1000 pulses, pressure 0.51
[5] = PL 3.5 cycles, PRF 6.25 kHz, BRF 2 Hz, BL 1000 pulses, pressure 0.51
[6] = PL 3.5 cycles, PRF 6.25 kHz, BRF 5 Hz, BL 1000 pulses, pressure 0.51
[7] = PL 3.5 cycles, PRF 6.25 kHz, pulses emitted continuously without bursts, pressure 0.51
[8] = PL 3.5 cycles, PRF 25 kHz, BRF 0.1 Hz, BL 1000 pulses, pressure 0.51
[9] = PL 3.5 cycles, PRF 25 kHz, BRF 1 Hz, BL 1000 pulses, pressure 0.51
[10] = PL 3.5 cycles, PRF 25 kHz, BRF 2 Hz, BL 1000 pulses, pressure 0.51
[11] = PL 3.5 cycles, PRF 25 kHz, BRF 5 Hz, BL 1000 pulses, pressure 0.51
[12] = PL 3.5 cycles, PRF 25 kHz, BRF 10 Hz, BL 1000 pulses, pressure 0.51
[13] = PL 3.5 cycles, PRF 25 kHz, pulses emitted continuously without bursts, pressure 0.51
[14] = PL 3.5 cycles, PRF 100 kHz, BRF 0.1 Hz, BL 1000 pulses, pressure 0.51
[15] = PL 3.5 cycles, PRF 100 kHz, BRF 1 Hz, BL 1000 pulses, pressure 0.51
[16] = PL 3.5 cycles, PRF 100 kHz, BRF 2 Hz, BL 1000 pulses, pressure 0.51
[17] = PL 3.5 cycles, PRF 100 kHz, BRF 5 Hz, BL 1 pulse, pressure 0.51
[18] = PL 3.5 cycles, PRF 100 kHz, BRF 5 Hz, BL 5 pulses, pressure 0.51
[19] = PL 3.5 cycles, PRF 100 kHz, BRF 5 Hz, BL 10 pulses, pressure 0.51
[20] = PL 3.5 cycles, PRF 100 kHz, BRF 5 Hz, BL 50 pulses, pressure 0.51
[21] = PL 3.5 cycles, PRF 100 kHz, BRF 5 Hz, BL 100 pulses, pressure 0.51
[22] = PL 3.5 cycles, PRF 100 kHz, BRF 5 Hz, BL 500 pulses, pressure 0.51
[23] = PL 3.5 cycles, PRF 100 kHz, BRF 5 Hz, BL 1000 pulses, pressure 0.13
[24] = PL 3.5 cycles, PRF 100 kHz, BRF 5 Hz, BL 1000 pulses, pressure 0.25
[25] = PL 3.5 cycles, PRF 100 kHz, BRF 5 Hz, BL 1000 pulses, pressure 0.37
[26] = PL 3.5 cycles, PRF 100 kHz, BRF 5 Hz, BL 1000 pulses, pressure 0.51
[27] = PL 3.5 cycles, PRF 100 kHz, BRF 10 Hz, BL 1000 pulses, pressure 0.51
[28] = PL 3.5 cycles, PRF 100 kHz, pulses emitted continuously without bursts, pressure 0.51
[29] = microbubble 0.01 μL/g, PRF 10 Hz, PL 20 ms, 0.46 MPa, 11-minute sonication
[30] = microbubble 0.05 μL/g injected over 180 seconds, PRF 5 Hz, PL 0.2 ms, 0.46 MPa
[31] = microbubble 0.05 μL/g, PRF 0.1 Hz, PL 20 ms, 0.46 MPa, 11-minute sonication
[32] = microbubble 0.05 μL/g, PRF 1 Hz, PL 20 ms, 0.46 MPa, 11-minute sonication
[33] = microbubble 0.05 μL/g, PRF 5 Hz, PL 0.2 ms, 0.46 MPa, 11-minute sonication
[34] = microbubble 0.05 μL/g, PRF 5 Hz, PL 20 ms, 0.46 MPa, 11-minute sonication
[35] = microbubble 0.05 μL/g, PRF 10 Hz, PL 0.03 ms, 0.46 MPa, 11-minute sonication
[36] = microbubble 0.05 μL/g, PRF 10 Hz, PL 0.1 ms, 0.46 MPa, 11-minute sonication
[37] = microbubble 0.05 μL/g, PRF 10 Hz, PL 0.2 ms, 0.46 MPa, 11-minute sonication
[38] = microbubble 0.05 μL/g, PRF 10 Hz, PL 1 ms, 0.46 MPa, 11-minute sonication
[39] = microbubble 0.05 μL/g, PRF 10 Hz, PL 2 ms, 0.46 MPa, 11-minute sonication
[40] = microbubble 0.05 μL/g, PRF 10 Hz, PL 10 ms, 0.46 MPa, 11-minute sonication
[41] = microbubble 0.05 μL/g, PRF 10 Hz, PL 20 ms, 0.46 MPa, 11-minute sonication
[42] = microbubble 0.05 μL/g, PRF 10 Hz, PL 20 ms, 0.46 MPa, microbubble and dextran 1 minute before a 30-second sonication
[43] = microbubble 0.05 μL/g, PRF 10 Hz, PL 30 ms, 0.46 MPa, 11-minute sonication
[44] = microbubble 0.05 μL/g, PRF 25 Hz, PL 20 ms, 0.46 MPa, 11-minute sonication
[45] = microbubble 0.25 μL/g, PRF 10 Hz, PL 20 ms, 0.46 MPa, 11-minute sonication
[46] = sham mouse, no ultrasound applied, microbubble 0.05 μL/g

increase in NOD (significance) (blood-brain barrier [1]; 100-kHz PRF, 5-Hz BRF, 0.51 MPa, 1000 pulse BL): Significant increases
NOD (mean ± std. dev.) (blood-brain barrier [1]; [3]): 0.68 ± 0.47 × 1e9
NOD (mean ± std. dev.) (blood-brain barrier [1]; [4]): 0.78 ± 0.85 × 1e9
NOD (mean ± std. dev.) (blood-brain barrier [1]; [5]): −0.16 ± 0.67 × 1e9
NOD (mean ± std. dev.) (blood-brain barrier [1]; [6]): 0.56 ± 0.95 × 1e9
NOD (mean ± std. dev.) (blood-brain barrier [1]; [7]): −0.11 ± 0.35 × 1e9
NOD (mean ± std. dev.) (blood-brain barrier [1]; [8]): 0.35 ± 0.10 × 1e9
NOD (mean ± std. dev.) (blood-brain barrier [1]; [9]): 1.92 ± 0.10 × 1e9
NOD (mean ± std. dev.) (blood-brain barrier [1]; [10]): 3.34 ± 1.35 × 1e9
NOD (mean ± std. dev.) (blood-brain barrier [1]; [11]): 1.48 ± 0.77 × 1e9
NOD (mean ± std. dev.) (blood-brain barrier [1]; [12]): 1.31 ± 1.35 × 1e9
NOD (mean ± std. dev.) (blood-brain barrier [1]; [13]): 0.30 ± 0.20 × 1e9
NOD (mean ± std. dev.) (blood-brain barrier [1]; [14]): 0.99 ± 0.85 × 1e9
NOD (mean ± std. dev.) (blood-brain barrier [1]; [15]): 1.45 ± 0.73 × 1e9
NOD (mean ± std. dev.) (blood-brain barrier [1]; [16]): 3.08 ± 2.76 × 1e9
NOD (mean ± std. dev.) (blood-brain barrier [1]; [17]): 0.01 ± 0.11 × 1e9
NOD (mean ± std. dev.) (blood-brain barrier [1]; [18]): 0.13 ± 0.17 × 1e9
NOD (mean ± std. dev.) (blood-brain barrier [1]; [19]): 2.14 ± 1.33 × 1e9
NOD (mean ± std. dev.) (blood-brain barrier [1]; [20]): 2.20 ± 0.54 × 1e9
NOD (mean ± std. dev.) (blood-brain barrier [1]; [21]): 3.60 ± 0.95 × 1e9
NOD (mean ± std. dev.) (blood-brain barrier [1]; [22]): 3.30 ± 0.58 × 1e9
NOD (mean ± std. dev.) (blood-brain barrier [1]; [23]): 0.10 ± 0.21 × 1e9
NOD (mean ± std. dev.) (blood-brain barrier [1]; [24]): 0.10 ± 0.16 × 1e9
NOD (mean ± std. dev.) (blood-brain barrier [1]; [25]): 0.60 ± 0.48 × 1e9
NOD (mean ± std. dev.) (blood-brain barrier [1]; [26]): 6.14 ± 1.45 × 1e9
NOD (mean ± std. dev.) (blood-brain barrier [1]; [27]): 2.01 ± 1.44 × 1e9
NOD (mean ± std. dev.) (blood-brain barrier [1]; [28]): 0.21 ± 0.32 × 1e9
NOD (mean ± std. dev.) (blood-brain barrier [1]; [29]): 2.89 ± 1.99 × 1e9
Number of mice with delivered dextran (blood-brain barrier [1]; [29]): 5/5
NOD (mean ± std. dev.) (blood-brain barrier [1]; [30]): 1.58 ± 1.37 × 1e9
Number of mice with delivered dextran (blood-brain barrier [1]; [30]): 5/5
NOD (mean ± std. dev.) (blood-brain barrier [1]; [31]): −0.17 ± 0.17 × 1e9
Number of mice with delivered dextran (blood-brain barrier [1]; [31]): 0/5
NOD (mean ± std. dev.) (blood-brain barrier [1]; [32]): 3.77 ± 4.52 × 1e9
Number of mice with delivered dextran (blood-brain barrier [1]; [32]): 3/5
NOD (mean ± std. dev.) (blood-brain barrier [1]; [33]): 2.02 ± 1.38 × 1e9
Number of mice with delivered dextran (blood-brain barrier [1]; [33]): 5/5
NOD (mean ± std. dev.) (blood-brain barrier [1]; [34]): 4.21 ± 2.05 × 1e9
Number of mice with delivered dextran (blood-brain barrier [1]; [34]): 5/5
NOD (mean ± std. dev.) (blood-brain barrier [1]; [35]): 0.78 ± 1.41 × 1e9
Number of mice with delivered dextran (blood-brain barrier [1]; [35]): 2/5
NOD (mean ± std. dev.) (blood-brain barrier [1]; [36]): 1.20 ± 1.05 × 1e9
Number of mice with delivered dextran (blood-brain barrier [1]; [36]): 5/6
NOD (mean ± std. dev.) (blood-brain barrier [1]; [37]): 0.98 ± 0.67 × 1e9
Number of mice with delivered dextran (blood-brain barrier [1]; [37]): 5/5
NOD (mean ± std. dev.) (blood-brain barrier [1]; [38]): 4.07 ± 3.71 × 1e9
Number of mice with delivered dextran (blood-brain barrier [1]; [38]): 5/5
NOD (mean ± std. dev.) (blood-brain barrier [1]; [39]): 1.84 ± 1.44 × 1e9
Number of mice with delivered dextran (blood-brain barrier [1]; [39]): 4/5
NOD (mean ± std. dev.) (blood-brain barrier [1]; [40]): 4.76 ± 2.03 × 1e9
Number of mice with delivered dextran (blood-brain barrier [1]; [40]): 5/5
NOD (mean ± std. dev.) (blood-brain barrier [1]; [41]): 4.45 ± 2.08 × 1e9
Number of mice with delivered dextran (blood-brain barrier [1]; [41]): 5/5
NOD (mean ± std. dev.) (blood-brain barrier [1]; [42]): 4.91 ± 0.94 × 1e9
Number of mice with delivered dextran (blood-brain barrier [1]; [42]): 5/5
NOD (mean ± std. dev.) (blood-brain barrier [1]; [43]): 5.77 ± 1.73 × 1e9
Number of mice with delivered dextran (blood-brain barrier [1]; [43]): 5/5
NOD (mean ± std. dev.) (blood-brain barrier [1]; [44]): 4.58 ± 1.40 × 1e9
Number of mice with delivered dextran (blood-brain barrier [1]; [44]): 5/5
NOD (mean ± std. dev.) (blood-brain barrier [1]; [45]): 5.34 ± 2.12 × 1e9
Number of mice with delivered dextran (blood-brain barrier [1]; [45]): 5/5
NOD (mean ± std. dev.) (blood-brain barrier [1]; [46]): 0.01 ± 0.23 × 1e9
Number of mice with delivered dextran (blood-brain barrier [1]; [46]): 0/5
Molecule: dextran
Incidence of NOD increase (blood-brain barrier [1]; [3]): 2/3
Incidence of NOD increase (blood-brain barrier [1]; [4]): 2/3
Incidence of NOD increase (blood-brain barrier [1]; [5]): 1/3
Incidence of NOD increase (blood-brain barrier [1]; [6]): 2/3
Incidence of NOD increase (blood-brain barrier [1]; [7]): 1/3
Incidence of NOD increase (blood-brain barrier [1]; [8]): 2/3
Incidence of NOD increase (blood-brain barrier [1]; [9]): 3/3
Incidence of NOD increase (blood-brain barrier [1]; [10]): 3/3
Incidence of NOD increase (blood-brain barrier [1]; [11]): 3/3
Incidence of NOD increase (blood-brain barrier [1]; [12]): 2/3
Incidence of NOD increase (blood-brain barrier [1]; [13]): 1/3
Incidence of NOD increase (blood-brain barrier [1]; [14]): 2/3
Incidence of NOD increase (blood-brain barrier [1]; [15]): 3/3
Incidence of NOD increase (blood-brain barrier [1]; [16]): 3/3
Incidence of NOD increase (blood-brain barrier [1]; [17]): 0/3
Incidence of NOD increase (blood-brain barrier [1]; [18]): 1/3
Incidence of NOD increase (blood-brain barrier [1]; [19]): 3/3
Incidence of NOD increase (blood-brain barrier [1]; [20]): 3/3
Incidence of NOD increase (blood-brain barrier [1]; [21]): 3/3
Incidence of NOD increase (blood-brain barrier [1]; [22]): 3/3
Incidence of NOD increase (blood-brain barrier [1]; [23]): 1/3
Incidence of NOD increase (blood-brain barrier [1]; [24]): 1/3
Incidence of NOD increase (blood-brain barrier [1]; [25]): 2/3
Incidence of NOD increase (blood-brain barrier [1]; [26]): 3/3
Incidence of NOD increase (blood-brain barrier [1]; [27]): 3/3
Incidence of NOD increase (blood-brain barrier [1]; [28]): 1/3
spatial distribution of delivered dextran fluorescence in the target ROI (blood-brain barrier [1]; bursts of 3.5-cycle pulses, 100-kHz PRF, 5-Hz BRF, 0.51 MPa, 1000 pulse BL, listed as 3-kDa dextran): distributed most homogeneously and across a larger area than the other two molecular weights; also recorded: homogeneous and diffuse spatial distribution

B1: Neurturin: neurotrophic factor neurturin (NTN) (protein, UniProt Q99748 96-197, looked up)
Neurturin: ARLGARPCGLRELEVRVSELGLGYASDETVLFRYCAGACEAAARVYDLGLRRLRQRRRLRRERVRAQPCCRPTAYEDEVSFLDAHSRYHTVHELSARECACV
permeation through the FUS-opened BBB into the parenchyma (blood-brain barrier [2]): permeating through the opened barrier and into the parenchyma

B2: GDNF: glia-derived neurotrophic factor (protein, UniProt P39905 78-211, looked up)
Glial cell line-derived …: SPDKQMAVLPRRERNRQAAAANPENSRGKGRRGQRGKNRGCVLTAIHLNVTDLGLGYETKEELIFRYCSGSCDAAETTYDKILKNLSRNRRLVSDKVGQACCRPIAFDDDLSFLDDNLVYHILRKHSAKRCGCI
permeation through the FUS-opened BBB into the parenchyma (blood-brain barrier [2]): does not
fluorescence post-mortem in brain, kidneys, liver, bladder or testes (blood-brain barrier [2]; in vivo): no fluorescence was found
time within which the protein may be broken down in circulation (blood-brain barrier [2]; in vivo): ≤ 45 s
